Experimental data published in patent US8853276B2, “Guanidine derivatives in cinnamic series” (Produits Chimiques Auxiliaires et de Synthese, priority 2010, dated 2014).

Tested on: fibrillin-1
Assay: Anti-glycation study on skin explants: fibrillin-1 immunolabeling with image analysis
Assay type: cell-based, human
Settings: for Fibrillin-1 (% of surface area under the dermo-epidermal junction), Mean: topical 2 mg per explant on D0, D3, D5, D7, aminoguanidine at 0.15%, compound 29 at 1%
Description: The anti-aging properties of a derivative according to the invention were evaluated by performing a comparative study of the anti-glycation activity of several compounds.
From an arm of a person, 21 explants (about 10 mm in diameter) were prepared and placed under survival conditions in BEM specific medium (BIO-EC's Explants Medium).
The explants were divided into seven batches of three explants:
Methylglyoxal was incorporated into the survival medium on D3, D5 and D7.
Compound 29 and the reference, aminoguanidine, were applied topically at a rate of 2 mg per explant on D0, D3, D5 and D7.
The controls (batches T0 and T) received no treatment.
On D0, the three explants of batch T0 were sampled and divided into two. One half was fixed with buffered formaldehyde and the other half was frozen at −80° C. On D9, three explants from each batch were sampled and treated in the same manner.
After 24 hours of fixing in the buffered formaldehyde, the samples were dehydrated and impregnated with paraffin using a Leica 1020 dehydration robot. They were embedded using a Leica EG 1160 coating station. 5 μm slices were produced using a Minot Leica RM 2125 microtome and bonded to Superfrost® histological glass slides.
The nuclei were stained with propidium iodide. The labeling was quantified by image analysis measurements with the Q-WIN Leica system.

[1] = D9 with methylglyoxal (in survival medium D3, D5, D7)
[2] = D9 with methylglyoxal, relative to the control batch T without methylglyoxal

Row | SMILES | Fibrillin-1 (% of surface area under the dermo-epidermal junction), Mean [1] [%] | increase in the percentage of surface area occupied by fibrillin-1 under the dermo-epidermal junction [2] [%] | Fibrillin-1 (% of surface area under the dermo-epidermal junction), Mean (D9 without methylglyoxal) [%] | reduction of the methylglyoxal-induced decrease in the expression of fibrillin-1 (D9, treatment in the presence of methylglyoxal) [%] | expression of fibrillin-1 (labeling, observation) (D9 in the presence of methylglyoxal, compared with control batch T MG) | decrease in the percentage of surface area occupied by fibrillin-1 under the dermo-epidermal junction [2] [%]
1 | COc1cc(/C=C/C(=O)NNC(=N)N)ccc1O [Compound 29, imino{2-[(2E)-3-(4-hydroxy-3-methoxyphenyl)prop-2-enoyl]hydrazino}methanaminium nitrate] | 27.7 | 17 | 21.53 |  |  | 
2 | N=C(N)NN [aminoguanidine, Aminoguanidine] | 21.0 |  | 28.3 | 49 | very sharp and greater than that observed on the control batch T MG with methylglyoxal | 12
3 | CC(=O)C=O [methylglyoxal, Methylglyoxal] |  |  |  |  |  | 23
